Structures can show the parent of a compound that is named as a salt. Where two headings read alike, the source gives them in different places.
Columns and labels:
5-HT uptake = target: T1, 5-HT uptake (Rattus norvegicus, UniProt P31652); assay: 5-HT uptake assay; assay type: biochemical; conditions: rat brain synaptosomes
T1 construct: [^3H]5-HT incorporation into rat brain synaptosomes; from tissue; host or cells: rat brain synaptosomes
Protocol: (§1) This analysis was performed using validated proprietary software.

NMDA = NMDA (Rattus norvegicus, UniProt P35439)
Excerpt: The specific ligand binding to the receptors was defined as the difference between the total binding and the nonspecific binding determined in the presence of an excess of unlabelled ligand. The results were expressed as a percent of control specific binding ((measured specific binding/control specific binding)×100) and as a percent inhibition of control specific binding (100-((measured specific binding/control specific binding)×100)) obtained in the presence of the test compounds. The IC50 values (concentration causing a half-maximal inhibition of control specific binding) and Hill coefficients (nH) were determined by non-linear regression analysis of the competition curves generated with mean replicate values using Hill equation curve fitting (Y=D+[(A−D)/(1+(C/C50)^nH)], where Y=specific binding, D=minimum specific binding, A=maximum specific binding, C=compound concentration, C50=IC50, and nH=slope factor). This analysis was performed using validated proprietary software. The inhibition constants (Ki) were calculated using the Cheng Prusoff equation Ki=IC50/(1+(L/KD)), where L=concentration of radioligand in the assay, and KD=affinity of the radioligand for the receptor). A scatchard plot was used to determine the Kd.

norepinephrine uptake = target: T2, norepinephrine uptake (Rattus norvegicus, UniProt Q63380); assay: norepinephrine uptake assay; assay type: biochemical; conditions: rat hypothalamus synaptosomes
T2 construct: [^3H]NE incorporation into rat hypothalamus synaptomsomes; from tissue; host or cells: rat hypothalamus synaptosomes
T2 sequence (Q63380 1-617): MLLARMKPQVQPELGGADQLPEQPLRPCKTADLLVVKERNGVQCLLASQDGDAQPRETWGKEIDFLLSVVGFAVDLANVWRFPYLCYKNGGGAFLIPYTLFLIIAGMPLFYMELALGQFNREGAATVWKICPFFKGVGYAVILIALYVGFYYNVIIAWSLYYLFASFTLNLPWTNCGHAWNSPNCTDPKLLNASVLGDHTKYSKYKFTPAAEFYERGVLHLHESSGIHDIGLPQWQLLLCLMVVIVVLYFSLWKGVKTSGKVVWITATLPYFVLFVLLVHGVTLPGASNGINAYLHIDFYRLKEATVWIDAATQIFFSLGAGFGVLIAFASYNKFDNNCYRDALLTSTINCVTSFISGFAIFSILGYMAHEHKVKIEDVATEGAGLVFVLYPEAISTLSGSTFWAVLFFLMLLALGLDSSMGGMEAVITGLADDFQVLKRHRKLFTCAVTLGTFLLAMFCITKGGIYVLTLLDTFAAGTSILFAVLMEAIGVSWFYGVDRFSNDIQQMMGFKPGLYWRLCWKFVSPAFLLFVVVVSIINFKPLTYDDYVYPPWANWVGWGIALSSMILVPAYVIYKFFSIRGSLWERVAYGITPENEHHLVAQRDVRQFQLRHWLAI
Protocol: as §1

[1] = cited from earlier work; for plasma half life: American Pain Society 2008; for half-life of oral levorphanol: Dixon et al 1983
[2] = tested on: thermal nociception (tail flick test); assay: Tail flick test of thermal nociception; assay type: in vivo, rat; conditions: compared with morphine
Protocol: Objective: To evaluate the efficacy and potency of levorphanol and to compare its potency relative to that of morphine in a model of thermal nociception (tail flick test).
Methods: Male Sprague-Dawley rats (200-300 grams) were used. Antinociceptive activity was determined by a significant increase in the latency to a reflexive flicking of the tail away from a radiant heat (infrared) source projected onto a small area on the ventral aspect of the tail. Baseline tail flick latencies were determined prior to any drug administration. The antinociceptive effect of levorphanol was determined 30, 45 and 60 minutes after dosing. […] Tail flick latencies for each time-point were compared to the mean baseline response by ANOVA followed by the post-hoc Fisher's Least Significant Difference test. A significant increase from the baseline was considered antinociceptive. […] Dose-response curves along with A50 values (i.e., dose calculated to produce a 50% MPE) and confidence intervals were determined from linear regression analysis of the log dose-effect curves. Significant differences in potency between 2 dose-response curves were determined by applying the Student's t-statistic to variances of the A50 values obtained for each dose-response curve.

[3] = American Pain Society 2008, cited from earlier work
[4] = tested on: thermal nociception (hot-plate test); assay: 53° C. hot-plate test of thermal nociception; assay type: in vivo, rat; conditions: compared with morphine
Protocol: Methods: Male Sprague-Dawley rats (200-300 grams) were used. Antinociceptive activity was determined by the 53° C. hot-plate test. The rat is placed on a metal plate heated to 53° C., and the latency to withdrawing or shaking or licking of a paw, or escape attempts by jumping were documented. A cut-off latency of 15 sec was employed. Drugs were prepared administered after baseline measurements were performed. Behavioral testing was performed 30, 45 and 60 minutes after dosing. The levorphanol data for were compared to historical morphine data. […] Dose-response curves along with A50 values (i.e., dose calculated to produce a 50% MPE) and confidence intervals were determined from linear regression analysis of the log dose-effect curves. Significant differences in potency between 2 dose-response curves were determined by applying the Student's t-statistic to variances of the A50 values obtained for each dose-response curve. The antinociceptive effect of levorphanol was determined in the 53° C. rat hot-plate test 30, 45 and 60 minutes after dosing. Hot-plate latencies for each time-point were compared to the mean baseline response by ANOVA followed by the post-hoc Fisher's Least Significant Difference test.

[5] = published pharmacokinetics of oral levorphanol (prescribing information, American Pain Society, Dixon et al)
[6] = tested on: serotonin reuptake and norepinephrine reuptake in rat brain synaptosomes; assay: norepinephrine and serotonin reuptake inhibition in rat brain synaptosomes; assay type: biochemical
[7] = IC50, expressed as levorphanol base
[8] = IC50, expressed as levorphanol tartrate

T1 sequence (P31652 whole entry): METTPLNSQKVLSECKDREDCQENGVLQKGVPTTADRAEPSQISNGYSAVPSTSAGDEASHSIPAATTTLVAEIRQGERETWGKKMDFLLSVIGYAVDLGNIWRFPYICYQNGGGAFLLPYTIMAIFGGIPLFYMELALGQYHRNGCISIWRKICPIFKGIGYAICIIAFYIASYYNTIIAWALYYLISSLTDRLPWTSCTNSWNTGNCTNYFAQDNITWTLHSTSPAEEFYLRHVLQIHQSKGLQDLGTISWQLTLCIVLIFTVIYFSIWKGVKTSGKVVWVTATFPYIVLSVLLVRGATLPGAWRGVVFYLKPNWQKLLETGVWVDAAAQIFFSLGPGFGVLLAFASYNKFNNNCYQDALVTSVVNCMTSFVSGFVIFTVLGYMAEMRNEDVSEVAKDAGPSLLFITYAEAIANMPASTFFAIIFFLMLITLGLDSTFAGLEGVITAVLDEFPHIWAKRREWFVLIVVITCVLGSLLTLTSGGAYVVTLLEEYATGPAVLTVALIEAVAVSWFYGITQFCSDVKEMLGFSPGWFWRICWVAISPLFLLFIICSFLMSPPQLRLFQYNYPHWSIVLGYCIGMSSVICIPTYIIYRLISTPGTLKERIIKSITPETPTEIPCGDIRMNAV

| Structure (SMILES) | IC50 (5-HT uptake; [7]) | IC50 (5-HT uptake; [8]) | inhibition (NMDA) | IC50 (norepinephrine uptake; [7]) | IC50 (norepinephrine uptake; [8]) | plasma half life [1] | plasma half life ([1]; after 1 week of dosing) | half-life of oral levorphanol ([1]; one patient) | half-life of oral levorphanol ([1]; second patient) | duration of analgesic action [2] | dose equianalgesic to oral morphine sulfate 30 mg ([3]; acute pain) | dose equianalgesic to oral morphine sulfate 30 mg ([3]; chronic pain) | duration of analgesic action [4] | mean time to steady state ([5]; using the average of the two reported values) | time to reach steady state therapeutic concentration upon repeated dosing ([5]; using the higher reported 30 hour half-life) | time to reach steady state therapeutic concentration upon repeated dosing ([5]; using the lower reported 16 hour half-life) | selectivity for serotonin reuptake inhibition over norepinephrine reuptake inhibition [6] |
| --- | --- | --- | --- | --- | --- | --- | --- | --- | --- | --- | --- | --- | --- | --- | --- | --- | --- |
| CN1CC[C@]23CCCC[C@H]2[C@H]1Cc1ccc(O)cc13 [Levorphanol Tartrate, morphinan-3-ol, 17-methyl-, [R—(R*,R*)]-2,3-dihydroxybutane-dioate (1:1) (salt) dihydrate] | 30.2 nM | 52 nM | 91% | 1220 nM | 2100 nM | – | – | – | – | – | – | – | – | – | – | – | – |
| CN1CC[C@]23CCCC[C@H]2[C@H]1Cc1ccc(O)cc13 [levorphanol, l 3-hydroxy-N-methylmorphinan] | – | – | – | – | – | 12 to 16 h | 90 to 120 h | approximately 16 hours | 30 h | shorter than that of morphine | 4 mg | 1 mg | shorter than that of morphine | 115 h | 150 h | 80 h | approximately 40 fold |
